This note sets out measurements from publication PMC11317148, “DNA-controlled protein fluorescence: Design of aptamer-split peptide hetero-modulator for GFP to respond to intracellular ATP levels” (Nucleic Acids Research, 2024).

Experiment [1] concerns tripartite split-GFP (ipGFP1-9). In words: ATP-mediated in vitro reconstitution of tripartite split-GFP (ssAPC + ipGFP1-9), fluorescence time course. Type of experiment: biochemical. The note with it: 10 mM of each nucleotide, 12 h incubation. How it is done:
We prepared a 50 μL mixture containing 1 μM aptamer-peptide complex and 20 μM ipGFP1-9 in ATP binding buffer (ATPBB; 20 mM Tris, 300 mM NaCl and 5 mM MgCl2, pH 7.4). These mixtures were transferred to a 384-well black microplate (Greiner Bio One, Kremsmünster, Austria) and challenged with various concentrations of ATP (2–10 mM). Fluorescence intensities were measured over a time course of 20 h at 5 min intervals using the extended mode of Cytation 7 (BioTek, Winooski, VT, USA) with excitation/emission wavelengths of 488/525 nm.
To assess the functionality of the aptamer-split peptide conjugate for GFP function modulation, we performed a time-course in vitro reconstitution assay with ssAPC and split GFP1-9 in the presence of varying concentrations of ATP (Figure 2A). Our group previously reported an in vitro reconstitution application using intein-mediated purified split GFP1-9 (ipGFP1-9) with improved solubility and expression levels to provide evidence of compatibility for application in this study ([28]). […] In the absence of ATP, we observed a modest background signal that could yield a false-positive result at earlier time-points (Figure 2A, dark gray trace), although this could readily be distinguished as a negative result relative to ATP-containing samples at later time-points. […] As aforementioned, according to Kang et al., the performance of this ATP aptamer has been proven by measuring EC50 values in terms of ATP-induced structure-switching with different lengths of antisense DNAs (11–18 nt) ([27]).
We also verified the specificity of our system towards ATP as a trigger molecule by assessing its response to other nucleotides such as UTP, GTP and CTP under identical conditions. To validate the low false-positive rate of self-assembly or non-specific binding, we compared the recovered fluorescence intensities after 12 h of incubation with 10 mM of each nucleotide.
We subsequently evaluated the performance of our system in the context of sustained responsiveness to environmental ATP changes. We conducted an experiment in which we measured fluorescence intensity over time while adding extra ATP in 2 mM increments every 120 min, up to a final concentration of 10 mM.
To verify that the fluorescence signal resulted from ATP-induced structure-switching, we performed experiments with the aptamer-modulated split GFP, in which we included an inhibitory strand that was fully complementary to the ATP aptamer sequence. We first performed an assembly reaction with the ssAPC, ipGFP1-9, and ATP for 12 h to generate a strong fluorescent signal, after which we added the inhibitory strand at varying molar ratios relative to the ssAPC ranging from 1:5 to 1:20 (Figure 2D).

The test system of experiment [2] is A549 human lung carcinoma cells. Description: Live-cell imaging of the aptamer-modulated split GFP response to intracellular ATP. Type of experiment: cell-based. The conditions noted are these: cells treated with ssAPC/ipGFP1-9 and Oligomycin A, compared to untreated controls. On the procedure: A549 human lung carcinoma cells were obtained from the Korean Cell Line Bank (Seoul, South Korea). The cells were cultured at 37°C and 5% CO2 in DMEM containing 10% FBS (v/v) and penicillin/streptomycin (Thermo Fisher Scientific, Waltham, MA, USA). A549 cells were seeded at a density of 1 × 10^4 cells/well in 96-well cell culture black plates (Greiner Bio One, Kremsmünster, Austria). After 24 h, the cells were transfected with naïve GFP, ipGFP1-9, and aptamer-peptide complexes using Lipofectamine 3000 (Thermo Fisher Scientific, Waltham, MA, USA) according to the manufacturer's instructions. The cells were imaged using the Cytation 7 Cell Imaging Multi-Mode Reader (BioTek Instruments, Winooski, VT, USA) with excitation/emission wavelengths of 488/525 nm for 24 h under cultivation conditions with 5% CO2 at 37°C. Images were analyzed using ImageJ software (https://imagej.nih.gov).
For starvation experiments, A549 cells were seeded at a density of 1 × 10^6 cells/dish in 100 mm^2 cell culture dishes. After incubation for 24 h, the medium was changed to DMEM without glucose. […] Intracellular ATP concentrations were measured using an ATP assay kit (Abcam, Cambridge, MA, USA) according to the manufacturer's instructions.
Finally, we assessed the functionality of aptamer-modulated split GFP to respond to intracellular ATP levels via the reassembly within cells. […]

For `Nc1ncnc2c1ncn2[C@@H]1O[C@H](COP(=O)(O)OP(=O)(O)OP(=O)(O)O)[C@@H](O)[C@H]1O` [ATP], in experiment [1], the “fluorescence recovery of ssAPC/ipGFP1-9 assembly by nucleotide (specificity)” value is “highly ATP-specific”.

As to `Nc1ccn([C@@H]2O[C@H](COP(=O)(O)OP(=O)(O)OP(=O)(O)O)[C@@H](O)[C@H]2O)c(=O)n1` [CTP], in experiment [1], the “fluorescence recovery of ssAPC/ipGFP1-9 assembly by nucleotide (specificity)” value was “minimal response”. As for Oligomycin A, the “intensity of green fluorescence of ssAPC/ipGFP1-9 after ATP depletion” value in experiment [2] is “conspicuous decrease”. `Nc1nc2c(ncn2[C@@H]2O[C@H](COP(=O)(O)OP(=O)(O)OP(=O)(O)O)[C@@H](O)[C@H]2O)c(=O)[nH]1` [GTP]: in experiment [1], the “fluorescence recovery of ssAPC/ipGFP1-9 assembly by nucleotide (specificity)” value is on record as “minimal response”.

As for `O=c1ccn([C@@H]2O[C@H](COP(=O)(O)OP(=O)(O)OP(=O)(O)O)[C@@H](O)[C@H]2O)c(=O)[nH]1` [UTP], in experiment [1], the “fluorescence recovery of ssAPC/ipGFP1-9 assembly by nucleotide (specificity)” value is “minimal response”.
